The experiment addresses T1, Human M4 (Homo sapiens, UniProt P08173).
T1 construct: expressed in transfected cells; host or cells: CHO-K1 (ATCC), co-transfected with chimeric G protein Gqi5
T1 sequence (P08173 1-479): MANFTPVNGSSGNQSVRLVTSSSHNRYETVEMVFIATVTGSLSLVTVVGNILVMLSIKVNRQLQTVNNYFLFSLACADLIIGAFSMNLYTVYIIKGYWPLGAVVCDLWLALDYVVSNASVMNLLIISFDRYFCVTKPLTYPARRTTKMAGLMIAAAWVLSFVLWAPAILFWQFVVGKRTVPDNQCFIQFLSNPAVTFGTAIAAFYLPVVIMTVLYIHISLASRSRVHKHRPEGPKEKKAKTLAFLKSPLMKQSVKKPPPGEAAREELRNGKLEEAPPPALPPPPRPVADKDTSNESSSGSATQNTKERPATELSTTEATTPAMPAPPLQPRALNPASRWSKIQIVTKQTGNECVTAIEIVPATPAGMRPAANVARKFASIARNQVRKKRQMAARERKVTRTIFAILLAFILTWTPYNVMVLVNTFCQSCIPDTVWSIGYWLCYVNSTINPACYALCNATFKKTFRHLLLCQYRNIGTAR
Briefly: mAChR M4 cell-based functional assay (calcium flux, antagonism of EC80 acetylcholine response). Particulars: M4/Gqi5/CHO-K1 cells; for remaining activity at 30 µM: read-out: Human M4 Emin (% ACh maximum at 30 μM); for IC50: concentration-dependent decrease of the response elicited by an EC80 concentration of acetylcholine. The method in brief:
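CHO-K1 cells stably expressing human M4 with chimeric Gqi5, Fluo-4 loaded; calcium flux read on FDSS. Compound (10-point, 1:3 series) added first, then EC20 acetylcholine at 143 s and EC80 at 268 s. IC50 from concentration-dependent decrease of EC80 response, four-parameter logistic fit.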

The source of these data is patent US20240228468A1, “N-(6-((OCTAHYDROCYCLOPENTA[C]PYRROL-5-YI)AMINO)PYRIDAZIN-3-YL)PHENYL)CARBOXAMIDE AND (6- ((OCTAHYDROCYCLOPENTA[C]PYRROL-5-YL)AMINO)PYRIDAZIN-3-YL)BENZAMIDE DERIVATIVES AS MACHR M4 ANTAGONISTS FOR THE TREATMENT OF NEURODEGENERATIVE DISORDERS” (Vanderbilt University, priority 2021, published 2024).

Take `[2H]C([2H])(C1CCOC(C)(C)C1)N1C[C@H]2C[C@H](Nc3ccc(-c4cccc(C(=O)NC)c4)nn3)C[C@H]2C1` (stereo partly drawn) [Compound A75, 3-(6-(((3aR,5s,6aS)-2-((2,2-dimethyltetrahydro-2H-pyran-4-yl)methyl-d2)octahydrocyclopenta[c]pyrrol-5-yl)amino)pyridazin-3-yl)-N-methylbenzamide]: the half-maximal inhibitory concentration (IC50) came out at 3.4 nM. In addition, the remaining activity at 30 µM (% ACh maximum at 30 μM) was 3%.

On to `O=C(c1ccc(-c2ccc(N[C@H]3C[C@@H]4CN(CC5CCOCC5)C[C@@H]4C3)nn2)cc1)N1CCC(O)C1` (stereo partly drawn) [Compound A25, (3-hydroxypyrrolidin-1-yl)(4-(6-(((3aR,5s,6aS)-2-((tetrahydro-2H-pyran-4-yl)methyl)octahydrocyclopenta[c]pyrrol-5-yl)amino)pyridazin-3-yl)phenyl)methanone], for which the 50% inhibitory concentration (IC50) turned out to be 25 nM. For the setting “% ACh maximum at 30 μM”, the remaining activity at 30 µM worked out at 4%.

Turning to `O=C(Nc1cc(F)c(F)c(-c2ccc(N[C@H]3C[C@@H]4CN(CC5CCOCC5)C[C@@H]4C3)nn2)c1)C1(C(F)(F)F)CC1` [Compound A11, N-(3,4-difluoro-5-(6-(((3aR,5s,6aS)-2-((tetrahydro-2H-pyran-4-yl)methyl)octahydrocyclopenta[c]pyrrol-5-yl)amino)pyridazin-3-yl)phenyl)-1-(trifluoromethyl)cyclopropane-1-carboxamide], the IC50 was determined as 66 nM. Further, for the setting “% ACh maximum at 30 μM”, the remaining activity at 30 µM worked out at 3%.

Regarding `[2H]C([2H])(C1CCOCC1)N1C[C@H]2C[C@H](Nc3ccc(-c4ccc(C(=O)NC)c(F)c4)nn3)C[C@H]2C1` [Compound A70, 2-fluoro-N-methyl-4-(6-(((3aR,5s,6aS)-2-((tetrahydro-2H-pyran-4-yl)methyl-d2)octahydrocyclopenta[c]pyrrol-5-yl)amino)pyridazin-3-yl)benzamide], the IC50 amounted to 4.7 nM. The remaining activity at 30 µM (% ACh maximum at 30 μM) was found to be 4%.

Turning to `[2H]C([2H])(C1CCOC(C)(C)C1)N1C[C@H]2C[C@H](Nc3ccc(-c4cc(F)cc(C(=O)NC)c4)nn3)C[C@H]2C1` (stereo partly drawn) [Compound A83, 3-(6-(((3aR,5s,6aS)-2-((2,2-dimethyltetrahydro-2H-pyran-4-yl)methyl-d2)octahydrocyclopenta[c]pyrrol-5-yl)amino)pyridazin-3-yl)-5-fluoro-N-methylbenzamide], the half-inhibitory concentration (IC50) was found to be 2.7 nM. Moreover, the remaining activity at 30 µM (% ACh maximum at 30 μM) was 4%.

Consider `[2H]C([2H])(C1CCOCC1)N1C[C@H]2C[C@H](Nc3ccc(-c4ccccc4C(=O)NCC)nn3)C[C@H]2C1` [Compound A59, N-ethyl-2-(6-(((3aR,5s,6aS)-2-((tetrahydro-2H-pyran-4-yl)methyl-d2)octahydrocyclopenta[c]pyrrol-5-yl)amino)pyridazin-3-yl)benzamide], for which the IC50 was determined as 170 nM. The remaining activity at 30 µM (% ACh maximum at 30 μM) was found to be 6%.

In the case of `[2H]C([2H])([C@H]1COCCO1)N1C[C@H]2C[C@H](Nc3ccc(-c4cccc(C(=O)NC)c4)nn3)C[C@H]2C1` [Compound A77, 3-(6-(((3aR,5s,6aS)-2-(((S)-1,4-dioxan-2-yl)methyl-d2)octahydrocyclopenta[c]pyrrol-5-yl)amino)pyridazin-3-yl)-N-methylbenzamide], the IC50 worked out at 45 nM. The remaining activity at 30 µM (% ACh maximum at 30 μM) turned out to be 4%.

Take `CNC(=O)c1ccc(-c2ccc(N[C@H]3C[C@@H]4CN(CC5CCOCC5)C[C@@H]4C3)nn2)cc1` [Compound A63, N-methyl-4-(6-(((3aR,5s,6aS)-2-((tetrahydro-2H-pyran-4-yl)methyl)octahydrocyclopenta[c]pyrrol-5-yl)amino)pyridazin-3-yl)benzamide]: the IC50 was 1.2 nM. Moreover, the remaining activity at 30 µM (% ACh maximum at 30 μM) was determined as 3%.

For the molecule `[2H]C([2H])([2H])NC(=O)c1ccccc1-c1ccc(N[C@H]2C[C@@H]3CN(CC4CCOCC4)C[C@@H]3C2)nn1` [Compound A60, N-(methyl-d3)-2-(6-(((3aR,5s,6aS)-2-((tetrahydro-2H-pyran-4-yl)methyl)octahydrocyclopenta[c]pyrrol-5-yl)amino)pyridazin-3-yl)benzamide], the half-inhibitory concentration (IC50) is 210 nM. Moreover, the remaining activity at 30 µM (% ACh maximum at 30 μM) worked out at 6%.

Consider `[2H]C([2H])(C1CCOCC1)N1C[C@H]2C[C@H](Nc3ccc(-c4cccc(NC(=O)CC)c4)nn3)C[C@H]2C1` [Compound A57, N-(3-(6-(((3aR,5s,6aS)-2-((tetrahydro-2H-pyran-4-yl)methyl-d2)octahydrocyclopenta[c]pyrrol-5-yl)amino)pyridazin-3-yl)phenyl)propionamide], for which the IC50 is 37 nM. The remaining activity at 30 µM (% ACh maximum at 30 μM) was determined as 3%.

For `CCNC(=O)c1ccccc1-c1ccc(N[C@H]2C[C@@H]3CN(CC4CCOCC4)C[C@@H]3C2)nn1` [Compound A58, N-ethyl-2-(6-(((3aR,5s,6aS)-2-((tetrahydro-2H-pyran-4-yl)methyl)octahydrocyclopenta[c]pyrrol-5-yl)amino)pyridazin-3-yl)benzamide], the IC50 was found to be 200 nM. Further, the remaining activity at 30 µM (% ACh maximum at 30 μM) amounted to 6%.

For `[2H]C([2H])([C@@H]1CCCCO1)N1C[C@H]2C[C@H](Nc3ccc(-c4cc(F)cc(C(=O)NC)c4)nn3)C[C@H]2C1` [Compound A86, 3-fluoro-N-methyl-5-(6-(((3aR,5s,6aS)-2-(((S)-tetrahydro-2H-pyran-2-yl)methyl-d2)octahydrocyclopenta[c]pyrrol-5-yl)amino)pyridazin-3-yl)benzamide], the half-maximal inhibitory concentration (IC50) came to 2.7 nM. Besides, the remaining activity at 30 µM (% ACh maximum at 30 μM) was 4%.

For `[2H]C([2H])(C1CCOCC1)N1C[C@H]2C[C@H](Nc3ccc(-c4ccc(C(=O)NCC)cc4)nn3)C[C@H]2C1` [Compound A52, N-ethyl-4-(6-(((3aR,5s,6aS)-2-((tetrahydro-2H-pyran-4-yl)methyl-d2)octahydrocyclopenta[c]pyrrol-5-yl)amino)pyridazin-3-yl)benzamide], the concentration for half-maximal inhibition (IC50) stood at 7.8 nM. Besides, the remaining activity at 30 µM (% ACh maximum at 30 μM) was found to be 5%.

As to `[2H]C([2H])([C@H]1CCCCO1)N1C[C@H]2C[C@H](Nc3ccc(-c4cc(F)cc(C(=O)NC)c4)nn3)C[C@H]2C1` [Compound A87, 3-fluoro-N-methyl-5-(6-(((3aR,5s,6aS)-2-(((R)-tetrahydro-2H-pyran-2-yl)methyl-d2)octahydrocyclopenta[c]pyrrol-5-yl)amino)pyridazin-3-yl)benzamide], the IC50 worked out at 0.9 nM. Also, the remaining activity at 30 µM (% ACh maximum at 30 μM) was 4%.

With `[2H]C([2H])([C@@H]1CCCOC1)N1C[C@H]2C[C@H](Nc3ccc(-c4cc(F)cc(C(=O)NC)c4)nn3)C[C@H]2C1` [Compound A85, 3-fluoro-N-methyl-5-(6-(((3aR,5s,6aS)-2-(((S)-tetrahydro-2H-pyran-3-yl)methyl-d2)octahydrocyclopenta[c]pyrrol-5-yl)amino)pyridazin-3-yl)benzamide], the IC50 came out at 84 nM. For the same molecule, under “% ACh maximum at 30 μM”, the remaining activity at 30 µM was determined as 5%.

Consider `CCNC(=O)c1ccc(-c2ccc(N[C@H]3C[C@@H]4CN(CC5CCOCC5)C[C@@H]4C3)nn2)cc1` [Compound A51, N-ethyl-4-(6-(((3aR,5s,6aS)-2-((tetrahydro-2H-pyran-4-yl)methyl)octahydrocyclopenta[c]pyrrol-5-yl)amino)pyridazin-3-yl)benzamide], for which the half-inhibitory concentration (IC50) was 2.1 nM. Besides, the remaining activity at 30 µM (% ACh maximum at 30 μM) turned out to be 3%.

Regarding `[2H]C([2H])(C1CCOCC1)N1C[C@H]2C[C@H](Nc3ccc(-c4cccc(C(=O)NC(C)C)c4)nn3)C[C@H]2C1` [Compound A72, N-isopropyl-3-(6-(((3aR,5s,6aS)-2-((tetrahydro-2H-pyran-4-yl)methyl-d2)octahydrocyclopenta[c]pyrrol-5-yl)amino)pyridazin-3-yl)benzamide], the IC50 was 28 nM. Besides, the remaining activity at 30 µM (% ACh maximum at 30 μM) worked out at 5%.

For `O=C(NC1CC1)c1cccc(-c2ccc(N[C@H]3C[C@@H]4CN(CC5CCOCC5)C[C@@H]4C3)nn2)c1` [Compound A28, N-cyclopropyl-3-(6-(((3aR,5s,6aS)-2-((tetrahydro-2H-pyran-4-yl)methyl)octahydrocyclopenta[c]pyrrol-5-yl)amino)pyridazin-3-yl)benzamide], the IC50 is 25 nM. Also, where the note is “% ACh maximum at 30 μM”, the remaining activity at 30 µM worked out at 3%.

`[2H]C([2H])([2H])NC(=O)c1ccc(-c2ccc(N[C@H]3C[C@@H]4CN(CC5CCOCC5)C[C@@H]4C3)nn2)cc1` (single isomer, unassigned) [Compound A54]: the half-maximal inhibitory concentration (IC50) was 9.9 nM. The remaining activity at 30 µM (% ACh maximum at 30 μM) is 3%.

As to `[2H]C([2H])([2H])NC(=O)c1cccc(-c2ccc(N[C@H]3C[C@@H]4CN(CC5CCOCC5)C[C@@H]4C3)nn2)c1` (single isomer, unassigned) [Compound A47], the 50% inhibitory concentration (IC50) stood at 10 nM. Also, where the note is “% ACh maximum at 30 μM”, the remaining activity at 30 µM was 4%.

As for `[2H]C([2H])(C1CCOCC1)N1C[C@H]2C[C@H](Nc3ccc(-c4ccc(NC(C)=O)cc4)nn3)C[C@H]2C1` (single isomer, unassigned) [Compound B1], the IC50 turned out to be 0.4 nM. Also, the “Human M4 Emin (% ACh maximum at 30 μM)” value (% ACh maximum at 30 μM) was determined as 4%.

Broadly, the IC50 is the concentration that gives 50% inhibition.
